Test results as given in US20250236607A1, “CYCLIN-DEPENDENT KINASE 9 (CDK9) DEGRADERS AND METHODS OF USING THEREOF” (OHIO STATE INNOVATION FOUNDATION, priority 2022, published 2025).
Converted amounts (≈) assume the structure as drawn. “And” between values parts separate entries of the source, which are not always exact repeats. Equal values may be shown once. Read-outs that look alike come from different tables or passages of the source.

Experiments:
MOLM13 cells [1] = assay: Cytotoxicity against MOLM13 cells; format: cell-based
Text: (§1) Through amide coupling using I-ethyl-3-carbodiimide hydrochloride (EDC.HCl), the alkynyl derivatives of 4.16, 4.29 and 4.30 were synthesized. Using these VIP152-derivatives, degraders 4.31, 4.33 and 4.34 were synthesized using click chemistry. Degrader 4.32 was also synthesized using amide coupling conditions with (1-[Bis([…])methylene]-1H-1,2,3-triazolo[4,5-b]pyridinium 3-oxide hexafluorophosphate (HATU) and the carboxylic acid 4.28. Scheme 7 illustrates the synthesis of this initial series. The series was evaluated for cytotoxicity against MOLM13 cells (IC50) and for their CDK9 degradation potency (DC50). The results are provided in Table 3.

CDK9 [2] = target: T1, CDK9 (Homo sapiens, UniProt P50750+Q96SW2); assay: CDK9 degradation potency (DC50) of VIP152-based degraders; format: cell-based; conditions: VIP152-based series
T1 construct: endogenous in cells
T1 sequence (P50750 whole entry): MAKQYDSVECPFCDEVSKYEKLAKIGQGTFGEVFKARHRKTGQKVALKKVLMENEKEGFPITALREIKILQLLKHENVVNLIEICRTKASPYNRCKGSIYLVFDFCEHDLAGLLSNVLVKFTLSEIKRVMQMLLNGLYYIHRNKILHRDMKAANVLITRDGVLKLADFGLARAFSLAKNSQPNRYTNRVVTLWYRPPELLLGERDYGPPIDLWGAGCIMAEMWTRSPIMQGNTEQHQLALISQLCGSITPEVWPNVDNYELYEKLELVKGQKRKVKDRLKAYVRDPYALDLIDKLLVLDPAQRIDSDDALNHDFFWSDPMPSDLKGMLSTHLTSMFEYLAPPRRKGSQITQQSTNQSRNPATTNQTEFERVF
T1 sequence (O60563 whole entry partner): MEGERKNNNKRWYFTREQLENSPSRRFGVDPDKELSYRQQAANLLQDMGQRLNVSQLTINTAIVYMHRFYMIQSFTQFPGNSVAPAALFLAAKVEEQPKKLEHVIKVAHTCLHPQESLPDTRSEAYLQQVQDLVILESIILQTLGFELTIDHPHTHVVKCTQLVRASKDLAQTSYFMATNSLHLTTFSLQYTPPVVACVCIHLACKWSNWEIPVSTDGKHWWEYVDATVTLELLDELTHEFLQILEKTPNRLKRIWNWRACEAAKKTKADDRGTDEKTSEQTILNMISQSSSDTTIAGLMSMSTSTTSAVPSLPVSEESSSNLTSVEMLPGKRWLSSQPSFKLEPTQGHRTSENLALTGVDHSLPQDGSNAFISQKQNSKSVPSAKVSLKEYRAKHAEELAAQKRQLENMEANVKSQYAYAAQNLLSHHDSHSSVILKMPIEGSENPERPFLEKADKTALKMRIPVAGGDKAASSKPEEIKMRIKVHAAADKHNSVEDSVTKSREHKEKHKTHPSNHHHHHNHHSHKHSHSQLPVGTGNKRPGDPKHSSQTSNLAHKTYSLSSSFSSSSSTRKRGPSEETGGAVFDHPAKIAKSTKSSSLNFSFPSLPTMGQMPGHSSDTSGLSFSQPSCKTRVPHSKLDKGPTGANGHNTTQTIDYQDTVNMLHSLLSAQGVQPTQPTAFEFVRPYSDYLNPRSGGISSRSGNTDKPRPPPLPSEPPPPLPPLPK
T1 sequence (Q96SW2 whole entry): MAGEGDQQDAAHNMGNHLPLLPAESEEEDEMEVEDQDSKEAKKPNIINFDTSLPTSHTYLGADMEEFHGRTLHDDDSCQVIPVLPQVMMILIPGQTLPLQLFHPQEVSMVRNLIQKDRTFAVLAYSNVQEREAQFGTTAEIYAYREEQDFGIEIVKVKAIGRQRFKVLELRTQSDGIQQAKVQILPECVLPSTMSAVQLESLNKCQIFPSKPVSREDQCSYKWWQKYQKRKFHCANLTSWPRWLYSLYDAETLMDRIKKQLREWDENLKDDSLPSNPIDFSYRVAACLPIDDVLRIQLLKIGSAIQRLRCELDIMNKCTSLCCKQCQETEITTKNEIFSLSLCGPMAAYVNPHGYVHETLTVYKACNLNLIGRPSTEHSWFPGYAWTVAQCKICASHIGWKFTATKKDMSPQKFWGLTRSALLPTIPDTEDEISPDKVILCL
T1 sequence (Q16531 whole entry partner): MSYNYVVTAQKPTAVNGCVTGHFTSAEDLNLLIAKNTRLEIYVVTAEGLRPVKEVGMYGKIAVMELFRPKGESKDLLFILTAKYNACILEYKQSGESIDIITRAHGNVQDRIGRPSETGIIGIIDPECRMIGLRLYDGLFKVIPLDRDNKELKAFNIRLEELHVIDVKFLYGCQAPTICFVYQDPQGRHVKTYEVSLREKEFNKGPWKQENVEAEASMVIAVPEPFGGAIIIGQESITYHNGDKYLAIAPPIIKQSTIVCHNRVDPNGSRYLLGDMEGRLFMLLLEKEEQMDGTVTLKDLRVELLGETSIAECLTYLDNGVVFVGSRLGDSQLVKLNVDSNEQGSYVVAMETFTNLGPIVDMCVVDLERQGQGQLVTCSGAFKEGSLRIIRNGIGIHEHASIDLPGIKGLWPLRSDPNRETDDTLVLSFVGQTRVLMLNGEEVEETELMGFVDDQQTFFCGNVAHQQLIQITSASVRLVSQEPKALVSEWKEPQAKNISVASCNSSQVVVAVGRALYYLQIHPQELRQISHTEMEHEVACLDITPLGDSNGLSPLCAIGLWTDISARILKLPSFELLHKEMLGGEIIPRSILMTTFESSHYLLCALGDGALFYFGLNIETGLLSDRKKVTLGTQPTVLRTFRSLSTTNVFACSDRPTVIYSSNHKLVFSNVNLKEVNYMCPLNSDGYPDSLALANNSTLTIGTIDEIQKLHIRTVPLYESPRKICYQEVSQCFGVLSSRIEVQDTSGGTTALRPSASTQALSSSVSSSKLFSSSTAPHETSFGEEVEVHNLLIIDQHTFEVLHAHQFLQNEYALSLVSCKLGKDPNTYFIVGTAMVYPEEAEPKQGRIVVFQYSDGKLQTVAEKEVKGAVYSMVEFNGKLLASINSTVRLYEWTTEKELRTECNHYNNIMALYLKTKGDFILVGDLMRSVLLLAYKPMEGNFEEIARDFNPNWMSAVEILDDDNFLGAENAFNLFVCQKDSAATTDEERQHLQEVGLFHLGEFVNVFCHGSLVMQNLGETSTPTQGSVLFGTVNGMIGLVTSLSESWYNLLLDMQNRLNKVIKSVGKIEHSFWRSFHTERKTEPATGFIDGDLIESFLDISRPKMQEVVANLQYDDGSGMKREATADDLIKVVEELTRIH
Text: as §1

Kinetic solubility assay = conditions: kinetic solubility, PBS pH 7.4; for solubility at 1.5 h: phosphate buffered saline, pH 7.4, aqueous buffer, kinetic from dmso stock, Solubility (μM)
MOLM13 cells [3] = assay: Protein shift experiment, cytotoxicity in FBS vs human serum, MOLM13; format: cell-based
Text: In order to determine the suitability of the lead compounds for advanced biological studies, the four degraders (4.49, 4.62, 4.72 and 4.78) were selected for a protein-shift analysis due to their higher potency and solubility.

[4] = Chromatographic log D determination (log k′80); format: physicochemical; conditions: chromatographic log D, PLRP-S column, pH 7.72
Procedure: Chromatographic Log D Determination. Test samples were prepared from 10 mM stock solutions in DMSO, to make 122 μM solutions in acetonitrile. Retention times were determined on a Shimadzu High Performance Liquid Chromatography (HPLC) system with Agilent PLRP-S column, 100 Å, 5 um particle size, 50×4.6 mm (part no.: PL1512-1500) with 1 mL/min flow rate. A 65 mM aqueous solution of ammonium acetate was prepared in water and diluted with acetonitrile to give 0.1% ammonium acetate 20:80 acetonitrile solution with pH 7.72. Eluents were detected with UV spectrophotometry at 337 nm. As a standard set, the retention times of β-estradiol, nifedipine, quinoline, phenol and 2-nitrophenol were determined (log k′80) and the dead time was extrapolated based on the reported log k′80 values originally reported by Caron et. al (log k′80*). The average value of the dead time for the standard set was 0.3001 minutes. Therefore, for consistency, 0.3 minutes was used as the dead time for all test samples. Experiments were performed in triplicate with a maximum percent standard deviation of 6.85%.

CDK9 [5] = target: T1, CDK9; assay: CDK9 degradation, automated western blot, triazole-containing AT7519 degraders (MV411); format: cell-based; conditions: for DC50: CDK9 degradation, MV411 cells; for Dmax: MV4-11; for Dmax / Dmax (%): maximum percent CDK9 degradation
Procedure: (§2) The obtained compounds were tested in biological experiments to measure their potency in inhibiting the growth of AML cells and in their degradation of CDK9. These measurements are reported as half-maximum growth inhibitory and half-maximum degradation concentrations, IC50s and DC50s, respectively. Maximum percent degradation (Dmax) values were also obtained during the CDK9 degradation assessments. The common MTS assay was used to acquire the IC50 values, while the DC50 values were obtained using an automated western blot experiment. These values are presented in Table 2, along with pIC50 (log(nM IC50)) to more accurately reflect the differences/lack thereof in in vitro cytotoxicity. The notation “N:N*” represents the number of linker atoms on each side of the rigid triazole ring for a given degrader. Predicted log D values, calculated using the ChemAxon […], are also provided for each degrader. To characterize the physicochemical properties of the new degrader series, two additional assays were performed: a kinetic aqueous solubility assay and the chromatographic log D experiment described earlier. Aqueous solubility is shown in μM while experimentally determined log D is shown as log k′80. Details regarding the execution of each experiment are provided below.

MV411 cells = assay: MTS cytotoxicity assay against MV411 cells; format: cell-based
Procedure: as §2

[6] = pH 7.4
[7] = Homo sapiens, MOLM-13, cytotoxicity, MOLM13 cells, read-out: IC50
[8] = Homo sapiens, MOLM-13, MOLM13, fetal bovine serum, read-out: IC50 (μM) FBS
[9] = MOLM-13, MOLM13, human serum, read-out: IC50 (μM) HS
[10] = cytotoxicity, MOLM13 cells, read-out: IC50
[11] = MOLM13, fetal bovine serum, read-out: IC50 (μM) FBS
[12] = MOLM13, human serum, read-out: IC50 (μM) HS
[13] = Homo sapiens, MV4-11, defined as log(nM IC50), MV411, read-out: pIC50 (converted)
[14] = Homo sapiens, MV4-11, growth inhibition, MV411 cells, MTS, read-out: IC50
[15] = growth inhibition, MV411 cells, MTS, read-out: IC50

`COc1cc(F)ccc1-c1cc(Nc2cc(CS(C)(=O)=NC(=O)CN3CCN(Cc4cn(C5CN(C(=O)CNc6cccc7c6C(=O)N(C6CCC(=O)NC6=O)C7=O)C5)nn4)CC3)ccn2)ncc1F` (centres unmarked) [Compound 4.49, 2-(4-((1-(1-((2-(2,6-dioxopiperidin-3-yl)-1,3-dioxoisoindolin-4-yl)glycyl)azetidin-3-yl)-1H-1,2,3-triazol-4-yl)methyl)piperazin-1-yl)-N-(((2-((5-fluoro-4-(4-fluoro-2-methoxyphenyl)pyridin-2-yl)amino)pyridin-4-yl)methyl)(methyl) (oxo)-16-sulfaneylidene) acetamide] showed an IC50 (MOLM13 cells [1]; [7]) of 420 nM, an IC50 (MOLM13 cells [1]; Homo sapiens, MOLM-13, text, MOLM13, read-out: potency) of 420 nM and a DC50 (CDK9 [2]) of 220 nM. For the same compound, the “Solubility” value (Kinetic solubility assay) was 58.2 µM (≈ 57 µg/mL), the solubility at 1.5 h (Kinetic solubility assay) was ~60 µM (≈ 58.8 µg/mL) and the IC50 (MOLM13 cells [3]; [8]) was 0.67 µM. For the same compound, the IC50 (MOLM13 cells [3]; [9]) was 1.24 µM.

In the case of `COc1cc(F)ccc1-c1cc(Nc2cc(CS(C)(=O)=NC(=O)CN3CCC(CN4CCC(COc5cccc6c5C(=O)N(C5CCC(=O)NC5=O)C6=O)CC4)CC3)ccn2)ncc1F` (centres unmarked) [Compound 4.78, 2-(4-{[4-({[2-(2,6-dioxopiperidin-3-yl)-1,3-dioxo-2,3-dihydro-1H-isoindol-4-yl]-oxy}methyl)piperidin-1-yl]methyl}piperidin-1-yl)-N-{[(2-{[5-fluoro-4-(4-fluoro-2-methoxyphenyl)pyridin-2-yl]amino}pyridin-4-yl)methyl](methyl)oxo-λ^6-sulfanylidene}acetamide], the IC50 (MOLM13 cells [1]; [7]) is reported as 410 nM, the “logk′80” value [4] is reported as 0.18 and the DC50 (CDK9 [2]) is reported as 820 nM. It also gave a solubility at 1.5 h (Kinetic solubility assay) of 28.9 µM (≈ 26.4 µg/mL), an IC50 (MOLM13 cells [3]; [8]) of 0.52 µM and an IC50 (MOLM13 cells [3]; [9]) of 0.49 µM.

For `COc1cc(F)ccc1-c1cc(Nc2cc(CS(C)(=O)=NC(=O)CN3CCC(c4cn(CC(=O)N5CCN(CCCc6cccc7c6C(=O)N(C6CCC(=O)NC6=O)C7=O)CC5)nn4)CC3)ccn2)ncc1F` (centres unmarked) [Compound 4.72, 2-(4-(1-(2-(4-(3-(2-(2,6-dioxopiperidin-3-yl)-1,3-dioxoisoindolin-4-yl)propyl)piperazin-1-yl)-2-oxoethyl)-1H-1,2,3-triazol-4-yl)piperidin-1-yl)-N-(((2-((5-fluoro-4-(4-fluoro-2-methoxyphenyl)pyridin-2-yl)amino)pyridin-4-yl)methyl)(methyl) (oxo)-16-sulfaneylidene) acetamide], the IC50 (MOLM13 cells [1]; MOLM13, read-out: potency) was 150 nM, the IC50 (MOLM13 cells [1]; [10]) was 180 nM and the “logk′80” value [4] was 0.11. For the same compound, the DC50 (CDK9 [2]) was 210 nM, the “Solubility” value (Kinetic solubility assay) was 16 µM and 15.7 µM and the IC50 (MOLM13 cells [3]; [11]) was 0.47 µM. It also gave an IC50 (MOLM13 cells [3]; [12]) of 0.55 µM.

With `O=C1CCC(N2C(=O)c3cccc(OCCCn4cc(CCCCCCN5CCC(NC(=O)c6n[nH]cc6NC(=O)c6c(Cl)cccc6Cl)CC5)nn4)c3C2=O)C(=O)N1` (centres unmarked) [Compound 4.8c, 4-(2,6-dichlorobenzamido)-N-(1-(6-(1-(3-((2(2,6-dioxopiperidin-3-yl)-1,3-dioxoisoindolin-4-yl)oxy)propyl)-1H-1,2,3-triazol-4-yl)hexyl)piperidin-4-yl)-1H-pyrazole-3-carboxamide] the “logk′80” value [4] was 0.116, the DC50 (CDK9 [5]) was 98.9 nM and the Dmax (CDK9 [5]) was 75.3%. For the same compound, the solubility at 1.5 h (Kinetic solubility assay) was 12.9 µM (≈ 10.9 µg/mL), the IC50 (MV411 cells; [13]) was 79.4 nM and the IC50 (MV411 cells; [14]) was 71.3 nM.

With `COc1cc(F)ccc1-c1cc(Nc2cc(CS(C)(=O)=NC(=O)C3CCCN(Cc4cn(C5CN(C(=O)CNc6cccc7c6C(=O)N(C6CCC(=O)NC6=O)C7=O)C5)nn4)C3)ccn2)ncc1F` (centres unmarked) [Compound 4.62] the IC50 (MOLM13 cells [1]; [10]) was 360 nM, the “logk′80” value [4] was 0.11 and the DC50 (CDK9 [2]) was 150 nM. The “Solubility” value (Kinetic solubility assay) was 13.8 µM (≈ 13.3 µg/mL), the IC50 (MOLM13 cells [3]; [11]) was 0.49 µM and the IC50 (MOLM13 cells [3]; [12]) was 1.34 µM.

In the case of `O=C1CCC(N2C(=O)c3cccc(OCCCCn4cc(CCCCCN5CCC(NC(=O)c6n[nH]cc6NC(=O)c6c(Cl)cccc6Cl)CC5)nn4)c3C2=O)C(=O)N1` (centres unmarked) [Compound 4.8b, 4-(2,6-dichlorobenzamido)-N-(1-(5-(1-(4-((2-(2,6-dioxopiperidin-3-yl)-1,3-dioxoisoindolin-4-yl)oxy)butyl)-1H-1,2,3-triazol-4-yl)pentyl)piperidin-4-yl)-1H-pyrazole-3-carboxanmide], the “logk′80” value [4] is reported as 0.112, the DC50 (CDK9 [5]) is reported as 951 nM and the “Dmax (%)” value (CDK9 [5]) is reported as 68.5%. The pIC50 (MV411 cells; defined as log(nM IC50), MV411) was 2.1, the IC50 (MV411 cells; [15]) was 130 nM and the “Solubility” value [6] was 13.2 µM (≈ 11.2 µg/mL).

For `O=C1CCC(N2C(=O)c3cccc(OCCCCCCCn4cc(CCCCCCN5CCC(NC(=O)c6n[nH]cc6NC(=O)c6c(Cl)cccc6Cl)CC5)nn4)c3C2=O)C(=O)N1` (centres unmarked) [Compound 4.9a, 4-(2,6-dichlorobenzamido)-N-(1-(6-(1-(7-((2-(2,6-dioxopiperidine-3-yl)-1,3-dioxoisoindolin-4-yl)oxy)heptyl)-1H-1,2,3-triazol-4-yl)hexyl)piperidin-4-yl)-1H-pyrazole-3-carboxamide], the “logk′80” value [4] was 0.184, the DC50 (CDK9 [5]) was 74.6 nM and the Dmax (CDK9 [5]) was 86.2%. It also gave a solubility at 1.5 h (Kinetic solubility assay) of 2.38 µM (≈ 2.15 µg/mL), an IC50 (MV411 cells; [13]) of 79.4 nM and an IC50 (MV411 cells; [14]) of 72.8 nM.

With `O=C1CCC(N2C(=O)c3cccc(OCCCn4cc(CCCCCN5CCC(NC(=O)c6n[nH]cc6NC(=O)c6c(Cl)cccc6Cl)CC5)nn4)c3C2=O)C(=O)N1` (centres unmarked) [Compound 4.7c, 4-(2,6-dichlorobenzamido)-N-(1-(5-(1-(3-((2-(2,6-dioxopiperidin-3-yl)-1,3-dioxoisoindolin-4-yl)oxy)propyl)-11H-1,2,3-triazol-4-yl)pentyl)piperidin-4-yl)-1H-pyrazole-3-carboxamide] the “logk′80” value [4] was 0.106, the DC50 (CDK9 [5]) was 404 nM and the “Dmax (%)” value (CDK9 [5]) was 58.6%. For the same compound, the pIC50 (MV411 cells; defined as log(nM IC50), MV411) was 2.3, the IC50 (MV411 cells; [15]) was 194 nM and the “Solubility” value [6] was 31.3 µM (≈ 26.1 µg/mL).

For `O=C1CCC(N2C(=O)c3cccc(OCCCCn4cc(CCCCN5CCC(NC(=O)c6n[nH]cc6NC(=O)c6c(Cl)cccc6Cl)CC5)nn4)c3C2=O)C(=O)N1` (centres unmarked) [Compound 4.7a, 4-(2,6-dichlorobenzamido)-N-(1-(4-(1-(4-((2-(2,6-dioxopiperidin-3-yl)-1,3-dioxoisoindolin-4-yl)oxy)buty)-1H-1,2,3-triazol-4-yl)butyl)piperidin-4-yl)-1H-pyrazole-3-carboxamide], the “logk′80” value [4] was 0.100, the DC50 (CDK9 [5]) was 130 nM and the “Dmax (%)” value (CDK9 [5]) was 67.5%. For the same compound, the pIC50 (MV411 cells; defined as log(nM IC50), MV411) was 2.4, the IC50 (MV411 cells; [15]) was 241 nM and the “Solubility” value [6] was 12.4 µM (≈ 10.3 µg/mL).

With `COc1cc(F)ccc1-c1cc(Nc2cc(CS(C)(=O)=NC(=O)CCc3cn(CCOCCOCCOc4cccc5c4C(=O)N(C4CCC(=O)NC4=O)C5=O)nn3)ccn2)ncc1F` (centres unmarked) [Compound 4.34, 3-(1-(2-(2-(2-((2-(2,6-dioxopiperidin-3-yl)-1,3-dioxoisoindolin-4-yl)oxy)ethoxy)ethoxy)ethyl)-1H-1,2,3-triazol-4-yl)-N-(((2-((5-fluoro-4-(4-fluoro-2-methoxyphenyl)pyridin-2-yl)amino)pyridin-4-yl)methyl)(methyl)(oxo)-16-sulfaneylidene)propenamide] the IC50 (MOLM13 cells [1]; [7]) was 60 nM, the “logk′80” value [4] was 0.13 and 0.16 and the DC50 (CDK9 [2]) was 70 nM. For the same compound, the solubility at 1.5 h (Kinetic solubility assay) was 5.2 µM (≈ 4.76 µg/mL), the IC50 (MOLM13 cells [3]; [8]) was 0.29 µM and the IC50 (MOLM13 cells [3]; [9]) was 1.52 µM.
